Measured values as given in PMC5733478, “A Non-imaging High Throughput Approach to Chemical Library Screening at the Unmodified Adenosine-A3 Receptor in Living Cells” (Frontiers in Pharmacology, 2017).
Counter-ions that a name gives are not always drawn.

The compounds below were run against T1, human A3AR (Homo sapiens, UniProt P0DMS8) (assay: LOPAC library primary screen: single concentration (10 μM) inhibition of 25 nM CA200645 binding, PHERAstar FS). Conditions: not given.
T1 construct: expressed in transfected cells
T1 sequence (P0DMS8 1-318): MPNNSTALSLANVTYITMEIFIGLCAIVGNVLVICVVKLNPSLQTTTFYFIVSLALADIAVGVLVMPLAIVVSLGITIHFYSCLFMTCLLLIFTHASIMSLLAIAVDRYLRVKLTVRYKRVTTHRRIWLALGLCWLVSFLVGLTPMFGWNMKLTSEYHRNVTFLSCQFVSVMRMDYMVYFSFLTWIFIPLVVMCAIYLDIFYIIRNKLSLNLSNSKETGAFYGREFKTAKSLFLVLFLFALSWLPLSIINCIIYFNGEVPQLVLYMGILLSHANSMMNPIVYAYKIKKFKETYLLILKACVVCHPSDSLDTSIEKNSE

| SMILES | % 25 nM CA200645 binding [%] | hit in LOPAC primary screen (inhibited the binding of CA200645 by >40%) |
| --- | --- | --- |
| CC(C)(CO)Cc1cc(C(C)(C)C)c(O)c(C(C)(C)C)c1 [CGP-7930] | 87.6 ± 4.9 |  |
| CC(C)(C=O)Cc1cc(C(C)(C)C)c(O)c(C(C)(C)C)c1 [CGP-13501] | 97.4 ± 7.1 |  |
| CCn1cnc2c(Nc3cccc(Cl)c3)nc(N[C@@H]3CCCC[C@@H]3N)nc21.Cl [CGP-74514A hydrochloride] | 94.1 ± 9.9 |  |
| CCNC(=O)[C@H]1O[C@@H](n2cnc3c(N)nc(NCCc4ccc(CCC(=O)O)cc4)nc32)[C@H](O)[C@@H]1O [CGS 21680, reference compound] |  | not identified as hits |
| CN1CCN(c2nc3cc(C(F)(F)F)ccc3n3cccc23)CC1.O=C(O)/C=C\C(=O)O [CGS-12066A maleate] | 97.3 ± 10.3 |  |
| Nc1nc2ccc(Cl)cc2c2nc(-c3ccco3)nn12 [CGS-15943] | 30.0 ± 3.0 |  |
| O=c1cc(-c2ccccc2F)[nH]c2cc3c(cc12)OCO3 [CHM-1 hydrate] | 97.3 ± 5.3 |  |
| CCCCCCCCCCC(C)(C)C(=O)Nc1c(OC)cc(OC)cc1OC [CI-976] | 89.4 ± 17.7 |  |
| C[C@H](Cc1ccc2c(c1)OC(C(=O)[O-])(C(=O)[O-])O2)NC[C@H](O)c1cccc(Cl)c1.[Na+].[Na+] [CL 316,243] | 38.7 ± 18.1 |  |
| N#Cc1cc2nc([O-])c([O-])nc2cc1[N+](=O)[O-].[Na+].[Na+] [CNQX disodium] | 94.7 ± 15.8 |  |
| CCc1cccc(N(C)C(N)=Nc2cccc3ccccc23)c1 [CNS-1102] | 102.3 ± 11.4 |  |
| COc1ccc(/C=C/c2nc(NCCCN(C)C)c3ccccc3n2)cc1.Cl.Cl.O [CP-31398 dihydrochloride hydrate] | 111.8 ± 1.4 |  |
| Nc1nc2ccc(Cl)cc2n2c(-c3ccccc3)nnc12 [CP-66713] | 93.9 ± 10.2 |  |
| CN(C)C(=O)[C@H](O)[C@H](Cc1ccccc1)NC(=O)c1cc2cc(Cl)ccc2[nH]1 [CP-91149] | 87.6 ± 14.6 |  |
| Cl.Cl.O=c1ccc2[nH]cc(C3=CCNCC3)c2[nH]1 [CP-93129 dihydrochloride hydrate] | 102.1 ± 6.9 |  |
| COc1ccccc1CN[C@@H]1CCCN[C@@H]1c1ccccc1.Cl.Cl.O [CP-100263 dihydrochloride hydrate] | 98.5 ± 6.9 |  |
| CC(C)(C)OC(=O)NC1[C@H]2CNC[C@@H]12 (stereo partly drawn) [CP-101537] | 102.3 ± 6.7 |  |
| CN1CCC[C@@H]1Cc1c[nH]c2ccc(Nc3ncccc3[N+](=O)[O-])cc12 [CP-135807] | 96.1 ± 6.8 |  |
| CCCCN(CC)c1nc(C)nc2c1c(C)cn2-c1c(C)cc(C)cc1C.Cl [CP-154526 hydrochloride] | 77.3 ± 23.1 |  |
| Fc1ccc2[nH]c(CN3CCN(c4ccccn4)CC3)cc2c1 [CP-226269] | 83.6 ± 17.8 |  |
| O.O.O=C(Nc1ccc2c(c1)CCN(Cc1ncn[nH]1)C2)c1ccccc1-c1ccc(C(F)(F)F)cc1 [CP-346086 dihydrate] | 98.2 ± 12.5 |  |
| COCCOc1cc2nc[nH]c(=O)c2cc1OCCOC [CP-380736] | 88.0 ± 4.4 |  |
| CC(C)(NS(=O)(=O)c1ccc(Oc2ccc(F)cc2)cc1)C(=O)NO [CP-471474] | 98.7 ± 17.5 |  |
| O=C(c1ccc(Cl)cc1)N1CCN(c2ccc([N+](=O)[O-])c3ncccc23)CC1 [CPNQ] | 83.4 ± 4.6 |  |
| Nc1nc(Nc2ccccc2)nc2c1ncn2[C@@H]1O[C@H](CO)[C@@H](O)[C@H]1O [CV1808, 2-phenylaminoadenosine, reference compound] | 55.3 ± 19.9 |  |
| O=C(c1ccc2c(c1)OCCO2)N1CCCCC1 [CX 546] | 95.5 ± 26.6 |  |
| O=C(/C=C/c1ccc(O)c(O)c1)OCCc1ccccc1 [Caffeic acid phenethyl ester] | 79.3 ± 10.7 |  |

| SMILES | % 25 nM CA200645 binding [%] | hit in LOPAC primary screen (inhibited the binding of CA200645 by >40%) |
| --- | --- | --- |
| CNc1ccc2oc(C[C@H]3O[C@@]4(CC[C@H]3C)O[C@H]([C@H](C)C(=O)c3ccc[nH]3)[C@H](C)C[C@H]4C)nc2c1C(=O)O [Calcimycin] | 38.9 ± 3.3 |  |
| Clc1ccc(C(c2ccc(Cl)cc2)n2cc[n+](CC(OCc3ccc(Cl)cc3Cl)c3ccc(Cl)cc3Cl)c2)cc1 (stereo not drawn) [Calmidazolium chloride] | 54.4 ± 19.1 |  |
| O=c1[nH]c(=S)[nH]c(-c2ccccc2)c1Cc1c(O)ccc2ccccc12 [Cambinol] | 94.8 ± 8.3 |  |
| CC1(C(=O)O)C2CCC(O2)C1(C)C(=O)O (stereo not drawn) [Cantharidic Acid] | 97.5 ± 13.0 |  |
| C[C@@]12C(=O)OC(=O)[C@]1(C)[C@H]1CC[C@@H]2O1 [Cantharidin] | 89.3 ± 25.6 |  |
| C[C@H](CS)C(=O)N1CCC[C@H]1C(=O)O [Captopril] | 97.2 ± 6.3 |  |
| C[N+](C)(C)CCOC(N)=O [Carbachol] | 103.1 ± 3.5 |  |
| NC(=O)N1c2ccccc2C=Cc2ccccc21 [Carbamazepine] | 89.8 ± 14.0 |  |
| N.N.O=C([O-])C1(C(=O)[O-])CCC1.[Pt+2] [Carboplatin] | 97.7 ± 5.9 |  |
| O=NN(CCCl)C(=O)NCCCl [Carmustine] | 102.2 ± 1.0 |  |
| COc1ccccc1OCCNCC(O)COc1cccc2[nH]c3ccccc3c12 (stereo not drawn) [Carvedilol] | 100.8 ± 14.2 |  |
| N[C@@H](C(=O)N[C@@H]1C(=O)N2C(C(=O)O)=C(Cl)CS[C@H]12)c1ccccc1 [Cefaclor] | 79.3 ± 20.7 |  |
| Cc1nnc(SCC2=C(C(=O)O)N3C(=O)[C@@H](NC(=O)Cn4cnnn4)[C@H]3SC2)s1 [Cefazolin sodium] | 96.3 ± 4.6 |  |
| CO[C@@]1(NC(=O)CSCC#N)C(=O)N2C(C(=O)O)=C(CSc3nnnn3C)CS[C@@H]21 [Cefmetazole sodium] | 84.6 ± 22.3 |  |
| CO/N=C(\C(=O)N[C@@H]1C(=O)N2C(C(=O)O)=C(COC(C)=O)CS[C@H]12)c1csc(N)n1 [Cefotaxime sodium] | 94.2 ± 6.2 |  |
| NC(=O)c1cc[n+](CC2=C(C(=O)[O-])N3C(=O)[C@@H](NC(=O)C(c4ccccc4)S(=O)(=O)[O-])[C@H]3SC2)cc1.O.[Na+] (stereo partly drawn) [Cefsulodin sodium salt hydrate] | 100.8 ± 6.6 |  |
| CO/N=C(\C(=O)N[C@@H]1C(=O)N2C(C(=O)O)=C(CSc3nc(=O)c(=O)[nH]n3C)CS[C@H]12)c1csc(N)n1 [Ceftriaxone sodium] | 100.5 ± 11.9 |  |
| Cc1ccc(-c2cc(C(F)(F)F)nn2-c2ccc(S(N)(=O)=O)cc2)cc1 [Celecoxib] | 72.6 ± 20.4 |  |
| CN(C)CCOC(=O)COc1ccc(Cl)cc1 [Centrophenoxine hydrochloride] | 90.4 ± 28.8 |  |
| CC1=C(C(=O)O)N2C(=O)[C@@H](NC(=O)[C@H](N)c3ccccc3)[C@H]2SC1.O [Cephalexin hydrate] | 101.0 ± 8.0 |  |
| CC(=O)OCC1=C(C(=O)[O-])N2C(=O)[C@@H](NC(=O)CCC[C@@H](N)C(=O)[O-])[C@H]2SC1.[Zn+2] [Cephalosporin C zinc salt] | 86.9 ± 28.2 |  |
| CC(=O)OCC1=C(C(=O)O)N2C(=O)[C@@H](NC(=O)Cc3cccs3)[C@H]2SC1 [Cephalothin sodium] | 104.6 ± 12.0 |  |
| CC1=C(C(=O)O)N2C(=O)[C@@H](NC(=O)[C@H](N)C3=CCC=CC3)[C@H]2SC1 [Cephradine] | 95.6 ± 1.1 |  |
| O=C(O)COCCN1CCN(C(c2ccccc2)c2ccc(Cl)cc2)CC1 (stereo not drawn) [Cetirizine dihydrochloride] | 98.6 ± 19.3 |  |
| COc1ccc2c(c[n+](C)c3c4cc5c(cc4ccc23)OCO5)c1OC [Chelerythrine chloride] | 73.9 ± 3.7 |  |
| O=C(O)c1cc(O)cc(C(=O)O)n1 [Chelidamic acid] | 110.2 ± 8.8 |  |

Same assay, conditions: 10 μM compound, 25 nM CA200645, A3AR CHO cells

| SMILES | hit in LOPAC primary screen (inhibited the binding of CA200645 by >40%) |
| --- | --- |
| Cn1c(=O)c2nc(C3CCCC3)[nH]c2n(C)c1=O [CPT, reference compound] | not identified as hits |
| Cn1c(=O)c2c(nc(/C=C/c3cccc(Cl)c3)n2C)n(C)c1=O [CSC, reference compound] | not identified as hits |
| Nc1nc(Nc2ccccc2)nc2c1ncn2[C@@H]1O[C@H](CO)[C@@H](O)[C@H]1O [CV1808, 2-phenylaminoadenosine, reference compound] | identified |

Same assay, conditions: % of 25 nM CA200645 binding in the presence of 10 μM compound, LOPAC full screen, A3AR CHO cells

| SMILES | % Total CA200645 binding [%] |
| --- | --- |
| Nc1nc(Nc2ccccc2)nc2c1ncn2[C@@H]1O[C@H](CO)[C@@H](O)[C@H]1O [CV1808, 2-phenylaminoadenosine, reference compound] | 53.3 ± 19.9 |

Same assay, conditions: % of control wells (1% DMSO and 25 nM CA200645); compounds at 10 µM; whole live cells expressing the A3AR; mean ± SD, three experiments in duplicate

| SMILES | % 25 nM CA200645 binding [%] |
| --- | --- |
| O=C(O)/C=C/c1ccc(O)c(O)c1 [Caffeic Acid] | 100.0 ± 4.2 |

Same assay, conditions: compounds tested at 10 µM; % of control wells (1% DMSO and 25 nM CA200645); whole live cells expressing the A3AR; mean ± SD, three experiments in duplicate

| SMILES | % 25 nM CA200645 binding [%] |
| --- | --- |
| CC1(C)CCC(NC(=O)[C@@H](N)CCC(=O)O)CC1 [CR 2249] | 109.1 ± 19.6 |
| Oc1cc2c(cc1O)CN(C(=S)NCCc1ccc(Cl)cc1)CCC2 [Capsazepine] | 90.6 ± 11.8 |
